# Assay results taken from US11752125B2, “Anti-neuroinflammatory and protective compounds in Achillea fragrantissima” (THE STATE OF ISRAEL MINISTRY OF AGRICULTURE & RURAL …, priority 2013, dated 2023).
# What was measured:
# Format in all cases: cell-based, rat
# glutamate = test: Glutamate secretion from LPS-activated microglial cells; conditions: LPS 100 ng/mL, 20 h
# Protocol: For glutamate measurements, 3.5×10^4 cells/well were plated on a 24-well tissue culture plate. After 24 h of incubation in DMEM containing 10% FBS, cells were stimulated with LPS (100 ng/mL) and treated with different concentrations of achillolide A. Conditioned media were collected twenty hours later, and were tested for glutamate levels using a colorimetric enzymatic assay kit (glutamate assay kit, BioVision, CA, USA) according to the manufacturer's instructions. 7. Measure the levels of glutamate using a colorimetric enzymatic assay kit (glutamate assay kit, BioVision, CA, USA) according to the manufacturer's instructions. Microglial cells were treated with the indicated concentrations of achillolide A, followed by stimulation with LPS (100 ng/mL). After 20 h, conditioned media were collected and tested for glutamate levels by a commercial kit. Values represent the means±SEM (n=4 for each treatment). ** p<0.01; *** p<0.001, compared to LPS-stimulated cells.
# NO = NO (nitrite) production by LPS-activated microglial cells (Griess); conditions: LPS 4.5 ng/mL, 20 h
# Protocol: (§1) Cultures of primary rat microglial cells were prepared from cerebral cortices of 1-2 day-old neonatal Wistar rats as described. Microglial cells were seeded at 24-well plastic plates at 1×10^5/well in RPMI-1640 containing 2% FBS, 2 mM glutamine, 100 U/mL penicillin, 100 µg/mL streptomycin, 1 mM sodium pyruvate, and 50 μM β-mercaptoethanol. Cells were cultured for 36 h before treatments. The research was conducted in accordance with the NIH guide for the care and use of laboratory animals, and was approved by the Institutional Animal Care and Use Committee of The Volcani Center, Agricultural Research Organization (IL-135/07, approval date Apr. 11, 2007). All efforts were made to minimize animal suffering, and to reduce the number of animals used.
# For NO measurements, 1×10^5 microglial cells/well were plated in a 24-well tissue culture plate. Cells were stimulated with LPS (4.5 ng/mL) and concomitantly treated with achillolide A or a reference drug. NO levels in the culture medium were estimated with Griess reagent.
# 3. Activate microglial cells with lipopolysaccharide (LPS, 4.5 nanograms/mL);
# In FIG. 21 A, microglial cells were treated with different concentrations of achillolide A, dexamethasone or memantine (as reference drugs) and were concomitantly activated by LPS (4.5 ng/mL) for 20 h. Cell conditioned supernatants were collected, and the levels of NO were measured using Griess reaction. Cytotoxicity was measured using the LDH method (FIG. 21B). Values represent the mean±SEM (n=12 for each treatment). ** p<0.01; ***p<0.001 relative to cells that were treated to LPS only.
# IL-1β = IL-1β secretion from LPS-stimulated microglial cells (ELISA); conditions: LPS 100 ng/mL, 24 h
# Protocol: as §1
# For IL-1β measurements, 3.5×10^4 cells/well were plated on a 24-well tissue culture plate. After 24 h of incubation in DMEM containing 10% FBS, cells were stimulated with LPS (100 ng/mL) and treated with different concentrations of achillolide A. Conditioned media were collected twenty four hours later, and were tested with a rat IL1β ELISA kit (Novus Biologicals; CO, USA), according to the manufacturer's instructions.
# 2. Plate microglial cells (3.5×10^4 cells/well) on a 24-well tissue culture plate, in DMEM containing 10% FBS, 2 mM glutamine, 100 U/ml penicillin and 100 micrograms/mL streptomycin;
# Microglial cells were treated with different concentrations of TTF, followed by stimulation with LPS (100 ng/mL). After 24 h, conditioned media were collected and tested for cytokine levels by ELISA. Cell viability was determined using the crystal violet assay (FIG. 9C). Values represent the means±SEM (n=4 for each treatment).
# Microglial cells were treated with 20 μg/mL of achillolide A, followed by stimulation with LPS (4.5 ng/mL). After 5 h the levels of the indicated transcripts were measured by quantitative real-time PCR and the relative quantity (RQ) of the different transcripts were determined. […] The results are expressed as percentages relative to LPS-stimulated cells. […]
# microglial cells = test: Cellular antioxidant activity (ABAP peroxyl radicals) in microglial cells; conditions: ABAP 0.6 mM, dexamethasone at nanomolar concentrations
# Protocol: Intracellular ROS production was detected using the non-fluorescent cell permeating compound, 2′7′-dichlorofluorescein diacetate (DCF-DA). DCF-DA is hydrolyzed by intracellular esterases and then oxidized by ROS to a fluorescent compound 2′-7′-DCF. Peroxyl radicals are generated by thermolysis of 2,2′-Azobis(amidinopropane) (ABAP) at physiological temperature. ABAP decomposes at approximately 1.36×10^−6s^−1 at 37° C., producing at most 1×10^12 radicals/mL/s. Microglial cells (130,000 cells/well) were plated in DMEM containing 2% FBS, 8.4 mM HEPES, 2 mM glutamine, 100 U/mL penicillin and 100 μg/mL streptomycin, onto 24 wells plates. In order to measure the ability of achillolide A to enter the cells and prevent the formation of DCF by ABAP-generated peroxyl radicals, cells were incubated for 1 h with achillolide A. Then cells were preloaded with DCF-DA for 30 min, washed twice with PBS, and ABAP (0.6 mM final concentration) was then added. The fluorescence, which indicates ROS levels, was measured in a plate reader with excitation at 485 nm and emission at 520 nm.
# Cells were incubated for 1 h with different concentrations of achillolide A. Then, the cells were pre-loaded with DCF-DA for 30 min and washed. ABAP (0.6 mM) was added to the culture and ROS levels were measured at the indicated time points. […]
structure (smiles),measurement,setting,value
"C[C@@H]1C[C@H]2[C@@H]3CCC4=CC(=O)C=C[C@]4(C)[C@@]3(F)[C@@H](O)C[C@]2(C)[C@@]1(O)C(=O)CO [dexamethasone, reference compound]",inhibition of the LPS-induced levels of secreted glutamate,glutamate,90%
same,inhibition of NO produced by the activated cells,NO,90%
same,inhibition of IL-1β secretion,IL-1β,85%
same,inhibition of the ABAP-induced increase in ROS fluorescence,microglial cells,75%
